In test [1] the target is human plasma kallikrein (Homo sapiens (Human), UniProt P03952). Kind of test: Plasma kallikrein activity assay (chromogenic substrate S2302). Format: biochemical. As to conditions: 2 nM kallikrein, 80 μM S2302, 30° C., pH 7.8; Cheng-Prusoff; reported as ranges.
Description: Plasma kallikrein activity assay. The effect of compounds of the invention on human plasma kallikrein activity was determined using the chromogenic substrates (DiaPharma Group, Inc., West Chester, Ohio, USA). In these experiments, 2 nM kallikrein (Enzyme Research Laboratories, South Bend, Ind., USA) was incubated with 80 μM S2302 (H-D-Pro-Phe-Arg-p-nitroaniline) in the absence or presence of increasing concentrations of compounds of the invention in a final volume of 200 μL Tris-HCl buffer (200 mM NaCl; 2.5 mM CaCl2; 50 mM Tris-HCl, pH 7.8).
Data were analyzed using SigmaPlot software (Systat Software, Inc., San Jose, Calif., USA) (Four Parameter Logistic Curve).
Test [2] deals with patients with hereditary angioedema (HAE). As to conditions: in vivo; cited from earlier work.

Chain of human plasma kallikrein (P03952 whole entry, looked up): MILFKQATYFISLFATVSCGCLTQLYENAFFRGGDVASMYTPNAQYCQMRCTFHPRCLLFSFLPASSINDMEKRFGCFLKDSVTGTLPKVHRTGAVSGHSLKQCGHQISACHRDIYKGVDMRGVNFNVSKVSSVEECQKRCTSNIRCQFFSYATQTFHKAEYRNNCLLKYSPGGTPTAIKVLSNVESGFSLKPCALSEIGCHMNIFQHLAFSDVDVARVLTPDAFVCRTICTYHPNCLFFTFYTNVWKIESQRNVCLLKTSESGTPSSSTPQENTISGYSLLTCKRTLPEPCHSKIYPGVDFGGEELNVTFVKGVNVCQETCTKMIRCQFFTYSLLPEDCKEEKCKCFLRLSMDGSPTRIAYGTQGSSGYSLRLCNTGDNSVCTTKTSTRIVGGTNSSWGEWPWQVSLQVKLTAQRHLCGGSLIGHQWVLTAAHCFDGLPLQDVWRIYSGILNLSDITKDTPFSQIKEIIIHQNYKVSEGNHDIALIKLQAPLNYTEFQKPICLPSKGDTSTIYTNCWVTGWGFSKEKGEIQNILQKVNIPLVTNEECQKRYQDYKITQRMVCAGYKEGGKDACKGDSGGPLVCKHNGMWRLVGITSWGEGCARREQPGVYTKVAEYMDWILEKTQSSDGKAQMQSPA
Chain of human plasma kallikrein (P03952 whole entry partner, looked up): as the sequence (P03952 whole entry, looked up) above

The term Ki denotes the equilibrium dissociation constant of an inhibitor or competing ligand from its target. A lower Ki goes with a stronger hold on the target. In turn, `Cc1cc(C(=O)Nc2cccc(C(NCC3CC3)c3cc(O)ccc3O)c2)n(-c2cccc(CN)c2)n1` (centres unmarked) [Compound 146g, 1-(3-(Aminomethyl)phenyl)-N-(3-((cyclopropylmethylamino)(2,5-dihydroxyphenyl)methyl)phenyl)-3-methyl-1H-pyrazole-5-carboxamide] had an inhibition constant (Ki) in test [1] of 0.1 to 50 nM. In the case of `NC(N)=NCCC[C@@H](N)C(=O)N[C@@H](CCCN=C(N)N)C(=O)N1CCC[C@H]1C(=O)N1C[C@H](O)C[C@H]1C(=O)NCC(=O)N[C@@H](Cc1cccs1)C(=O)N[C@@H](CO)C(=O)N1Cc2ccccc2C[C@@H]1C(=O)N1[C@H](C(=O)N[C@@H](CCCN=C(N)N)C(=O)O)C[C@@H]2CCCC[C@@H]21` [Icatibant], the “treating HAE” value in test [2] was “effective”.

These data come from US11230530B2, “Human plasma kallikrein inhibitors” (BioCryst Pharmaceuticals, Inc., priority 2014, dated 2022).
